These results are taken from ChEMBL document CHEMBL1201862, “PubChem BioAssay data set” (2004).

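Where inhibition never reached the appropriate level, the endpoint shown equals the highest concentration tested. Otherwise, values were interpolated linearly from a five-concentration, 48-hour dose response in 96-well plates. Here, GI50 denotes the concentration required for 50% inhibition of growth.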 Activity calls are given as the source filed them. Cut-off read from the data, not from the text of the source: active = GI50 up to about 1.1 µM and inactive = higher.

Among the test systems are U-251; NCI-H460; SF-539; RXF 393; DMS-114; 786-0; SR; SK-MEL-5; RPMI-8226; Malme-3M; SNB-19; SNB-75; CCRF-CEM; UO-31; NCI-H522; HCT-15; HL-60; MCF7; BT-549; MDA-N.
What all share (assay): inhibition of tumour cell growth, NCI panel, 48 h

`Cc1ccc(NC(=O)CCc2nnc3s/c(=C\c4cccc([N+](=O)[O-])c4)c(=O)n23)cc1`: the GI50 in the test with U-251 was 47.9 µM (inactive); in the test on NCI-H460, > 100 µM (inactive); in the test on SF-539, 25.3 µM (inactive); with RXF 393, > 100 µM (inactive); in the test with DMS-114 it was > 100 µM (inactive); in the test on 786-0, 40.4 µM (inactive). The GI50 is > 100 µM (inactive) with SR; > 100 µM (inactive) in the test on SK-MEL-5; > 100 µM (inactive) in the test with RPMI-8226; > 100 µM (inactive) with Malme-3M; 84.5 µM (inactive) in the test on SNB-19; 40.6 µM (inactive) in the test with SNB-75. The GI50 is 66.1 µM (inactive) in the test with CCRF-CEM, > 100 µM (inactive) with UO-31, 52.6 µM (inactive) with NCI-H522 and > 100 µM with HCT-15.
In the case of `O=c1cccccc1NCCCNc1cccccc1=O`, the GI50 was > 100 µM (inactive) in the test with U-251; 41.6 µM (inactive) in the test on NCI-H460; > 100 µM (inactive) in the test on SF-539; > 100 µM (inactive) in the test on RXF 393; > 100 µM (inactive) in the test on DMS-114; > 100 µM (inactive) in the test with 786-0. The GI50 in the test with SR was > 100 µM (inactive); in the test with RPMI-8226, > 100 µM (inactive); in the test with Malme-3M, 11.9 µM (inactive); in the test with SNB-19, > 100 µM (inactive); in the test on CCRF-CEM, > 100 µM (inactive); with UO-31, > 100 µM (inactive). Moreover, the GI50 in the test on NCI-H522 is > 100 µM (inactive); in the test on HCT-15 it was > 100 µM; in the test on HL-60, 43.2 µM (inactive).
As for `C/C(CC(=O)Nc1ccc(Cl)c(Cl)c1)=N/NC(=O)C[n+]1ccccc1`, the GI50 in the test on U-251 is > 100 µM (inactive); with NCI-H460, 77.4 µM (inactive); with SF-539, > 100 µM (inactive); with RXF 393, > 100 µM (inactive); in the test with DMS-114, 28.4 µM (inactive); in the test on 786-0 it was 43.1 µM (inactive). Moreover, the GI50 is 23.7 µM (inactive) with SR; > 100 µM (inactive) in the test on SK-MEL-5; 32.3 µM (inactive) in the test on RPMI-8226; > 100 µM (inactive) with Malme-3M; > 100 µM (inactive) in the test on SNB-19; 85.3 µM (inactive) in the test on CCRF-CEM. For the same molecule, the GI50 in the test on UO-31 is > 100 µM (inactive); with NCI-H522, 68.2 µM (inactive); in the test on HCT-15, 30.5 µM; in the test on HL-60, 44.4 µM (inactive).
In the case of `CCCCN1C(=O)C2c3[nH]c4ccccc4c3C3CCCCC3C2C1=O.CCCCN1C(=O)C2c3[nH]c4ccccc4c3[C@@H]3CCCCC3C2C1=O` (configuration not stated), the GI50 is 16.4 µM (inactive) in the test with U-251; 10.5 µM (inactive) with NCI-H460; 14.8 µM (inactive) with SF-539; 12.9 µM (inactive) in the test on DMS-114; 4.41 µM (inactive) with 786-0; 23.6 µM (inactive) with SK-MEL-5. The GI50 with SNB-19 is 23.4 µM (inactive); in the test with SNB-75, 7.11 µM (inactive); in the test on CCRF-CEM it was 16.4 µM (inactive); with UO-31 it was 14.8 µM (inactive); in the test with HCT-15, 29.4 µM; in the test with HL-60 it was 13.6 µM (inactive).
Take `CC(=O)OC1COC(N2C(=O)C(=O)c3cc(Br)c([N+](=O)[O-])cc32)C(OC(C)=O)C1OC(C)=O` (configuration not stated): the GI50 in the test with U-251 is > 100 µM (inactive); with NCI-H460, > 100 µM (inactive); with SF-539 it was > 100 µM (inactive); in the test on RXF 393, 32.1 µM (inactive); in the test on DMS-114, 24.7 µM (inactive); with 786-0 it was > 100 µM (inactive). Also, the GI50 with SR is 29.1 µM (inactive); with SK-MEL-5, > 100 µM (inactive); with RPMI-8226, > 100 µM (inactive); in the test with Malme-3M, 71 µM (inactive); in the test with SNB-19, > 100 µM (inactive); in the test on SNB-75, 22.5 µM (inactive). Further, the GI50 in the test on CCRF-CEM was 37.6 µM (inactive); in the test on NCI-H522, 48.8 µM (inactive); with HCT-15, > 100 µM; in the test with HL-60, 31 µM (inactive).
For `COCC(O)CN1C(N)=NC(O)C1O` (configuration not stated), the GI50 with U-251, in the test with NCI-H460, in the test with SF-539, in the test with RXF 393, in the test on DMS-114 and in the test with 786-0 was > 100 µM (inactive) in each case. The GI50 in the test on SR, with SK-MEL-5, in the test on Malme-3M, with SNB-19, with SNB-75 and in the test with UO-31 was > 100 µM (inactive) in each case. The GI50 in the test with NCI-H522 and in the test with HL-60 was > 100 µM (inactive) in each case.
As to `COc1cc(C2C(C(=O)Nc3cc(F)c(F)cc3F)=C(C)NC(C)=C2C(=O)Nc2cc(F)c(F)cc2F)ccc1O`, the GI50 in the test on U-251 was 23.6 µM (inactive); with NCI-H460 it was 27.3 µM (inactive); in the test on SF-539, 26.8 µM (inactive); in the test on RXF 393, 10.6 µM (inactive); with DMS-114, 14 µM (inactive); in the test with 786-0, 26.7 µM (inactive). Besides, the GI50 was 18.5 µM (inactive) in the test on SK-MEL-5; 16.3 µM (inactive) with RPMI-8226; 24.7 µM (inactive) in the test with Malme-3M; 29.2 µM (inactive) with SNB-19; 2.36 µM (inactive) with SNB-75; 14 µM (inactive) with CCRF-CEM. In addition, the GI50 in the test on UO-31 is 8.04 µM (inactive); with NCI-H522, 13.3 µM (inactive); in the test on HL-60, 15.7 µM (inactive).
Consider `c1ccc(C2=NN(c3nc4ccccc4s3)C3(CCCCC3)N2)nc1`, for which the GI50 in the test with U-251 is 20.4 µM (inactive); with NCI-H460, 15.2 µM (inactive); in the test on SF-539, 46.3 µM (inactive); in the test on MCF7, 21.6 µM (inactive); in the test on RXF 393 it was 21.9 µM (inactive); with BT-549, 20.5 µM (inactive). Further, the GI50 with 786-0 was 18.3 µM (inactive); in the test with SR, 1.85 µM (inactive); in the test with SK-MEL-5, 20.1 µM (inactive); in the test with MDA-N it was 24.9 µM (inactive); in the test with RPMI-8226, 16.1 µM (inactive); with Malme-3M, 11.7 µM (inactive). Further, the GI50 in the test with SNB-19 was 40.2 µM (inactive); in the test on SNB-75 it was 25.6 µM (inactive); with CCRF-CEM it was 29 µM (inactive); in the test on UO-31, 35.1 µM (inactive); in the test on NCI-H522, 26.5 µM (inactive); with HCT-15, 32.8 µM. Moreover, the GI50 in the test on HL-60 was 25.2 µM (inactive).
Turning to `C[n+]1cccc(NC(=O)c2ccc(NC(=O)C34CCC(C(=O)Nc5ccc(C(=O)Nc6ccc[n+](C)c6)cc5)(CC3)CC4)cc2)c1`, the GI50 is 27.9 µM (inactive) in the test with U-251; 7.45 µM (inactive) in the test with NCI-H460; 80.5 µM (inactive) in the test on SF-539; 22.1 µM (inactive) with RXF 393; 13.8 µM (inactive) in the test with DMS-114; 3.7 µM (inactive) in the test with 786-0. In addition, the GI50 in the test on SR was 21.3 µM (inactive); in the test on SK-MEL-5 it was 33.2 µM (inactive); with RPMI-8226, 3.92 µM (inactive); in the test on SNB-19 it was 24.9 µM (inactive); in the test with SNB-75, 2.84 µM (inactive); with CCRF-CEM it was 15.2 µM (inactive). Further, the results for the GI50 in the test on NCI-H522, in the test with HCT-15 and with HL-60 were 5.42 µM (inactive), 58.2 µM and 1.87 µM (inactive), respectively.
Take `COC1(c2cccs2)c2ccccc2C(OC)(c2cccs2)c2ccccc21` (configuration not stated): the GI50 was 42.4 µM (inactive) in the test with U-251; > 100 µM (inactive) in the test with NCI-H460; 36.5 µM (inactive) with SF-539; 84.7 µM (inactive) with MCF7; 52.4 µM (inactive) in the test on RXF 393; 78.5 µM (inactive) in the test with BT-549. Moreover, the GI50 in the test on 786-0 was 35.3 µM (inactive); in the test with SR, 40.7 µM (inactive); in the test with SK-MEL-5, > 100 µM (inactive); in the test with MDA-N, > 100 µM (inactive); in the test with RPMI-8226, 63.2 µM (inactive); with Malme-3M, > 100 µM (inactive). Moreover, the GI50 in the test with SNB-19 was 42.8 µM (inactive); with SNB-75, 59.8 µM (inactive); in the test with CCRF-CEM, > 100 µM (inactive); in the test with UO-31, > 100 µM (inactive); with NCI-H522, 97.9 µM (inactive); in the test on HCT-15 it was > 100 µM. Moreover, the GI50 in the test on HL-60 was > 100 µM (inactive).
As to `CCN(CC)c1ccc(/N=N/c2ccc([N+](=O)[O-])cc2OC(=O)/C=C/c2ccccc2)c(OC(=O)/C=C/c2ccccc2)c1`, the GI50 in the test on U-251 was 5.43 µM (inactive); in the test on NCI-H460, 0.7 µM (active); with SF-539, 2.89 µM (inactive); in the test with RXF 393 it was 42.9 µM (inactive); with DMS-114 it was 3.49 µM (inactive); with 786-0, 7.43 µM (inactive). The GI50 is 4.27 µM (inactive) in the test on SR; 12.2 µM (inactive) with SK-MEL-5; 6.44 µM (inactive) in the test with Malme-3M; > 24.2 µM (inactive) in the test on SNB-19; 8.04 µM (inactive) with SNB-75; 3.02 µM (inactive) in the test on CCRF-CEM. For the same molecule, the GI50 with UO-31 was 4.45 µM (inactive); in the test with NCI-H522 it was 23.2 µM (inactive); in the test with HCT-15 it was 19.5 µM; in the test on HL-60 it was 2.11 µM (inactive).
With `Cc1ccc([S+]([O-])(=Nc2ccccc2)C(C(C)C)C(C)(C)Cl)cc1` (configuration not stated), the GI50 with U-251 is 16.7 µM (inactive); in the test with NCI-H460 it was 4.21 µM (inactive); in the test on SF-539, 15.9 µM (inactive); in the test on MCF7 it was 20.6 µM (inactive); with RXF 393, 30.1 µM (inactive); in the test on BT-549, 18.1 µM (inactive). The GI50 with 786-0 was 24.2 µM (inactive); in the test on SR, 16.1 µM (inactive); in the test with SK-MEL-5 it was 4.06 µM (inactive); in the test with MDA-N, 16 µM (inactive); in the test with RPMI-8226 it was 14 µM (inactive); in the test with Malme-3M it was 27.9 µM (inactive). Besides, the GI50 in the test with SNB-19 was 8.67 µM (inactive); in the test with SNB-75, > 50 µM (inactive); in the test with CCRF-CEM, 9.1 µM (inactive); in the test on UO-31, 18.8 µM (inactive); with NCI-H522 it was 16 µM (inactive); in the test on HCT-15 it was 17 µM. The GI50 in the test with HL-60 was 7.67 µM (inactive).
